Among the data in patent US20240383904A1, “HETEROCYCLIC COMPOUNDS” (Hoffmann-La Roche Inc., priority 2021, published 2024) are IC50 values, retold here.

The target in this assay is T1, MAGL (Homo sapiens, UniProt Q99685).
T1 sequence (Q99685 1-303): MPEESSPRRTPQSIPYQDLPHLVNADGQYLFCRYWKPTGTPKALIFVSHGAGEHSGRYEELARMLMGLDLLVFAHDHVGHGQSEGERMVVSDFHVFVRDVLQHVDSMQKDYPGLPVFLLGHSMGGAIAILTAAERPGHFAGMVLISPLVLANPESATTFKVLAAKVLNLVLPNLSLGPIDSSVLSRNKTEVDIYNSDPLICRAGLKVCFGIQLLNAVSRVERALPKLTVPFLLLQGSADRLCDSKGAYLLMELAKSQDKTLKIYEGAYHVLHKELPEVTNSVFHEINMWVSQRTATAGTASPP
Put plainly: 2-AG assay: MAGL inhibitory activity by hydrolysis of 2-arachidonoylglycerol to arachidonic acid, followed by mass spectrometry. Type of assay: biochemical. As to conditions: 15 min preincubation, 30 min reaction at RT, 8 μM 2-arachidonoylglycerol. The text has this: Compounds of formula (I) were profiled for MAGL inhibitory activity by determining the enzymatic activity by following the hydrolysis of the natural substrate 2-arachidonoylglycerol (2-AG) resulting in arachidonic acid, which can be followed by mass spectrometry. This assay is hereinafter abbreviated “2-AG assay”.
Compounds of formula (I) were profiled for MAGL inhibitory activity by determining the enzymatic activity by following the hydrolysis of the natural substrate 2-arachidonoylglycerol (2-AG) resulting in arachidonic acid, which can be followed by mass spectrometry. This assay is hereinafter abbreviated “2-AG assay”. The 2-AG assay was carried out in 384 well polypropylene assay plates. Compound dilutions were made in 100% DMSO in a polypropylene plate in 3-fold dilution steps to give a final concentration range in the assay from 12.5 μM to […]. Compound dilutions were added to MAGL protein in assay buffer (50 mM TRIS, 1 mM EDTA, 0.01% (v/v) Tween-20, 2.5% (v/v) DMSO). After shaking, the plate was incubated for 15 min at RT. To start the reaction, 2-arachidonoylglycerol in assay buffer was added. The final concentrations in the assay was […] for MAGL protein and 8 μM 2-arachidonoylglyerol. After shaking and 30 min incubation at RT, the reaction was quenched by the addition of two assay volumes of acetonitrile containing 4 μM of d8-arachidonic acid. The amount of arachidonic acid formed was traced by an online SPE system (Agilent Rapidfire) coupled to a triple quadrupole mass spectrometer. A C18 SPE cartridge (Agilent G9205A) was used in an acetonitrile/water liquid setup. The mass spectrometer was operated in negative electrospray mode following the mass transitions 303.1→259.1 for arachidonic acid and 311.1→267.0 for d8-arachidonic acid. The activity of the compounds was calculated based on the ratio of intensities [arachidonic acid/d 8-arachidonic acid].
Compound `O=C1NC2(CO1)CN(C(=O)N1CC3(CC(Nc4ccc(C(F)(F)F)nn4)C3)C1)C2` [Example 51, 2-[6-[[6-(trifluoromethyl)pyrida-zin-3-yl]amino]-2-azaspiro[3.3]heptane-2-carbonyl]-7-oxa-2,5-diazaspiro[3.4]octan-6-one] showed an IC50 of 24 nM.

Turning to `O=C1NC2(CCO1)CN(C(=O)N1CC3(CC(NS(=O)(=O)c4cccc(C(F)(F)F)c4)C3)C1)C2` [Example 52, N-[2-(6-keto-7-oxa-2,5-diazaspiro[3.5]nonane-2-carbonyl)-2-azaspiro[3.3]heptan-6-yl]-3-(trifluoromethyl)benzene-sulfonamide], the IC50 came out at 742 nM.

As to `O=C1NC2(CO1)CN(C(=O)N1CC3(CC(Cn4cc(C(F)(F)F)cn4)C3)C1)C2` [Example 53, 2-[6-[[4-(trifluoromethyl)pyrazol-1-y1]methyl]-2-azaspiro[3.3]heptane-2-carbonyl]-7-oxa-2,5-diazaspiro[3.4]octan-6-one], it took 0.44 nM to reach half-maximal inhibition (IC50).

The compound `O=C1CCC2(CN(C(=O)N3CC4(CC(Cn5cc(C(F)(F)F)cn5)C4)C3)C2)N1` [Example 54, 2-[6-[[4-(trifluoromethyl)pyrazol-1-y1]methyl]-2-azaspiro[3.3]heptane-2-carbonyl]-2,5-diazaspiro[3.4]octan-6-one] gave an IC50 of 9.37 nM.

In turn, `O=C1CCC2(CN(C(=O)N3CC4(CC(NS(=O)(=O)c5cccc(C(F)(F)F)c5)C4)C3)C2)N1` [Example 55, N-[2-(6-keto-2,5-diazaspiro[3.4]octane-2-carbonyl)-2-azaspiro[3.3]heptan-6-yl]-3-(trifluoromethyl)benzen esulfonamide] gave an IC50 of 9.81 nM. The IC50 values of the last two compounds are within 1.5-fold of each other.

`O=C1NC2(CO1)CN(C(=O)N1CC3(CC(n4cnc(C5CC5)n4)C3)C1)C2` [Example 56, 2-[6-(3-cyclopropyl-1,2,4-triazol-1-yl)-2-azaspiro[3.3]heptane-2-carbonyl]-7-oxa-2,5-diazaspiro[3.4]octan-6-one]: the IC50 turned out to be 12.9 nM.

With `O=C1CCC2(CN(C(=O)N3CC4(CC(Cc5nc(C(F)(F)F)ns5)C4)C3)C2)N1` [Example 57, 2-[6-[[3-(trifluoromethyl)-1,2,4-thiadiazol-5-y1]methyl]-2-azaspiro[3.3]heptane-2-carbonyl]-2,5-diazaspiro[3.4]octan-6-one], inhibition was half-maximal at 13.4 nM (IC50).

The compound `O=C1CCC2(CN(C(=O)N3CC4(CC(Cc5nc(C(F)(F)F)co5)C4)C3)C2)N1` [Example 58, 2-[6-[[4-(trifluoromethyl)oxazol-2-yl]methyl]-2-azaspiro[3.3]heptane-2-carbonyl]-2,5-diazaspiro[3.4]octan-6-one] had an IC50 of 17.3 nM.

Compound `O=C1CCC2(CN(C(=O)N3CC4(CC(Cn5cnc(C(F)(F)F)c5)C4)C3)C2)N1` [Example 59, 2-[6-[[4-(trifluoromethyl)imidazol-1-yl]methyl]-2-azaspiro[3.3]heptane-2-carbonyl]-2,5-diazaspiro[3.4]octan-6-one] came in with an IC50 of 36.6 nM.

As for `O=C1CCC2(CN(C(=O)N3CC4(CCC(Cc5ccc(C(F)(F)F)cn5)CC4)C3)C2)N1` [Example 60, 2-[7-[[5-(trifluoromethyl)-2-pyridyl]methyl]-2-azaspiro[3.5]nonane-2-carbonyl]-2,5-diazaspiro[3.4]octan-6-one], the IC50 came out at 0.74 nM. Compared with the last compound, the IC50 is about 49-fold lower.

Regarding `O=C1NC2(CO1)CN(C(=O)N1CC3(CCC(Cc4ccc(C(F)(F)F)cn4)CC3)C1)C2` [Example 61, 2-[7-[[5-(trifluoromethyl)-2-pyridyl]methyl]-2-azaspiro[3.5]nonane-2-carbonyl]-7-oxa-2,5-diazaspiro[3.4]octan-6-one], the IC50 worked out at 0.19 nM.

`O=C1NC2(CO1)CN(C(=O)N1CC3(CCC(OCC4(C(F)(F)F)CC4)CC3)C1)C2` [Example 62, 2-[7-[[1-(trifluoromethyl)cyclopro-pyl]methoxy]-2-azaspiro[3.5]nonane-2-carbonyl]-7-oxa-2,5-diazaspiro[3.4]octan-6-one] showed an IC50 of 0.98 nM.

As for `O=C1NC2(CO1)CN(C(=O)N1CC3(CC(c4cnc(C(F)(F)F)cn4)C3)C1)C2` [Example 63, 2-[6-[5-(trifluoromethyl)pyrazin-2-yl]-2-azaspiro[3.3]heptane-2-carbonyl]-7-oxa-2,5-diazaspiro[3.4]octan-6-one], the midpoint of inhibition, the IC50, lay at 1.28 nM. This IC50 and that of the compound before are within 1.5-fold of each other.

As to `O=C1NC2(CO1)CN(C(=O)N1CC3(CC(OCC4(C(F)(F)F)CC4)C3)C1)C2` [Example 64, 2-[6-[[1-(trifluoromethyl)cyclopro-pyl]methoxy]-2-azaspiro[3.3]heptane-2-carbonyl]-7-oxa-2,5-diazaspiro[3.4]octan-6-one], the IC50 was 1.28 nM.

`O=C1NC2(CO1)CN(C(=O)N1CC3(CC(NC4(C(F)(F)F)CC4)C3)C1)C2` [Example 65, 2-[6-[[1-(trifluoromethyl)cyclopro-pyl]amino]-2-azaspiro[3.3]heptane-2-carbonyl]-7-oxa-2,5-diazaspiro[3.4]octan-6-one] came in with an IC50 of 1.85 nM.

`O=C1CCC2(CN(C(=O)N3CC4(CC(Cn5cnc(C(F)(F)F)n5)C4)C3)C2)N1` [Example 66, 2-[6-[[3-(trifluoromethyl)-1,2,4-triazol-1-yl]methyl]-2-carbonyl]-2,5-diazaspiro[3.4]octan-6-one] yielded an IC50 of 29.9 nM.

On to `O=C1NC2(CO1)CN(C(=O)N1CC3(CC(C(=O)NC4(C(F)(F)F)CC4)C3)C1)C2` [Example 67, 2-(6-keto-7-oxa-2,5-diazaspiro[3.4]octane-carbonyl)-N-[1-(trifluoromethyl)cyclopro-pyl]-2-azaspiro[3.3]heptane-6-carboxamide], for which 88.6 nM corresponded to half-maximal inhibition (IC50). This IC50 lies about 3-fold higher than the previous one.

In turn, `O=C1NC2(CO1)CN(C(=O)N1CC3(CCC(Oc4ccnc(C(F)(F)F)n4)CC3)C1)C2` [Example 68, 2-[7-[2-(trifluoromethyl)pyrimi-din-4-yl]oxy-2-azaspiro[3.5]nonane-2-carbonyl]-7-oxa-2,5-diazaspiro[3.4]octan-6-one] showed an IC50 of 2.13 nM.

`O=C1NC2(CO1)CN(C(=O)N1CC3(CCC(Oc4cnc(C(F)(F)F)cn4)CC3)C1)C2` [Example 69, 2-[7-[5-(trifluoromethyl)pyrazin-2-yl]oxy-2-azaspiro[3.5]nonane-2-carbonyl]-7-oxa-2,5-diazaspiro[3.4]octan-6-one] yielded an IC50 of 0.83 nM. Against the preceding compound, the IC50 is about 2.6-fold lower.

`O=C1NC2(CO1)CN(C(=O)N1CC3(CC(Oc4cnc(C(F)(F)F)cn4)C3)C1)C2` [Example 70, 2-[6-[5-(trifluoromethyl)pyrazin-2-yl]oxy-2-azaspiro[3.3]heptane-2-carbonyl]-7-oxa-2,5-diazaspiro[3.4]octan-6-one]: half-maximal inhibition (IC50) required 3.68 nM.

`O=C1NC2(CO1)CN(C(=O)N1CC3(CCC(Oc4cnc(C(F)(F)F)cn4)C3)C1)C2` (stereo not drawn) [Example 71, 2-[6-[5-(trifluoromethyl)pyrazin-2-yl]oxy-2-azaspiro[3.4]octane-2-carbonyl]-7-oxa-2,5-diazaspiro[3.4]octan-6-one] showed an IC50 of 3.29 nM.

`CS(=O)(=O)c1ccc(CC2CCC3(C2)CN(C(=O)N2CC4(COCC(=O)N4)C2)C3)cc1` (stereo not drawn) [Example 72, 2-[6-(4-mesylbenzyl)-2-azaspiro[3.4]octane-2-carbonyl]-8-oxa-2,5-diazaspiro[3.5]nonan-6-one]: the IC50 is 98.2 nM.

Take `O=C1CCC2(CN(C(=O)N3CC4(CC(Oc5ccc(C(F)(F)F)nn5)C4)C3)C2)N1` [Example 75, 2-[6-[6-(trifluoromethyl)pyridazin-3-yl]oxy-2-azaspiro[3.3]heptane-2-carbonyl]-2,5-diazaspiro[3.4]octan-6-one]: the IC50 came to 271 nM. Against the preceding compound, the IC50 is about 2.8-fold higher.

Turning to `O=C1NC2(CO1)CN(C(=O)N1CC3(CC(Oc4ccc(C(F)(F)F)nn4)C3)C1)C2` [Example 76, 2-[6-[6-(trifluoromethyl)pyrida-zin-3-yl]oxy-2-azaspiro[3.3]heptane-2-carbonyl]-7-oxa-2,5-diazaspiro[3.4]octan-6-one], the IC50 came out at 8.33 nM.

As for `CS(=O)(=O)c1ccc(CC2CCC3(C2)CN(C(=O)N2CC4(COC(=O)N4)C2)C3)cc1` (stereo not drawn) [Example 77, 2-[6-(4-mesylbenzyl)-2-azaspiro[3.4]octane-2-carbonyl]-7-oxa-2,5-diazaspiro[3.4]octan-6-one], the IC50 was 0.91 nM.

Compound `O=C1NC2(CO1)CN(C(=O)N1CC3(CC(c4cnc(C(F)(F)F)nc4)C3)C1)C2` [Example 78, 2-[6-[2-(trifluoromethyl)pyrimi-din-5-yl]-2-azaspiro[3.3]heptane-2-carbonyl]-7-oxa-2,5-diazaspiro[3.4]octan-6-one] returned an IC50 of 2.3 nM. Against the preceding compound, the IC50 is about 2.5-fold higher.

In turn, `O=C1NC2(CO1)CN(C(=O)N1CC3(CC(c4ccc(C(F)(F)F)nc4)C3)C1)C2` [Example 79, 2-[6-[6-(trifluoromethyl)-3-pyridyl]-2-azaspiro[3.3]heptane-2-carbonyl]-7-oxa-2,5-diazaspiro[3.4]octan-6-one] displayed a half-inhibitory concentration (IC50) of 3.79 nM.

Usually IC50 stands for the concentration that inhibits the measured activity by half.
